US7037891B2, “Methods of modulating G-protein-coupled receptor kinase-associated signal transduction” (Children's Medical Center Corporation, priority 1997, dated 2006)

Assays:
[1] = Reduction of weight and appetite of normal mice; type: in vivo; conditions: for change in body weight as compared to control / food consumption as compared to control: NDP-αMSH 0.9 μg/kg BW; for change in body weight as compared to control: KO24H107 21 mg/kg, or both (FIG. 7A); for food consumption as compared to control: KO24H107 21 mg/kg, or both (FIG. 7B)
Protocol: 18 Sabra male mice, 8 weeks old, were used and were divided into four groups as followed:
The animals were weighed before trial and periodically during the trial.
At the same time, food was weighted before it was introduced into cages and at the end of each tested period. From this point on, the follow-up included both weighing of the mice and of the food for the short period, every couple of hours, until night, and later on for the long period, each 24 hour cycle.
The results of FIG. 7A are shown as the percentage of change in body weight as compared to the initial weight for each mice, and then averaged for each group. The calculation of food consumption (FIG. 7B) was calculated in each group relative to the total weight of all animals (4 or 5 animals) and averaged separately for each group.
The above experiment was conducted again with another compound comprising a GRK-derived peptide KO24H112 (SEQ ID NO:5) 16 animals were used as follows: […]

[2] = Type II diabetes in sand rats: blood-glucose after i.p. injection; type: in vivo, sand rats (psamomys obesus); conditions: diabetic sand-rats
Description: Sand-rats (psamomys) which are genetically prone to develop Type II diabetes were used in this study. The genetically selected sand-rats, 3 to 6 months old, were fed an energy-rich diet (Weizmann HE) for about 3 to 10 days until they became diabetic, as judged by their elevated blood-glucose level (see R. Kalman et al., “The Efficiency of Sand Rat Metabolism is Responsible for Development of Obesity and Diabetes”, J. of Basic & Clinical Physiology & Pharmacology (1993), vol. 4, no. 1–2, pp 57–68, the pertinent portions of which are incorporated herein by reference).
The diabetic sand-rats were injected i.p. once a week with a compound comprising GRK-derived peptide K024H107 (SEQ ID NO:10) at a dose of 10 mg/kg. The peptide was prepared by diluting a 10 mM solution of the peptide in 100% DMSO with phosphate buffered saline (PBS) containing 0.1% bovine serum albumin (BSA) to a concentration of 400 μM. […] of the 10 mM peptide in DMSO solution was mixed with 160 μl of 1.6M NH4HCO3 and heated for 40 minutes at 100° C. The resultant solution was then diluted to 400 μM in 2 M Hepes buffer (pH 7.0). This peptide stock solution was labeled “tbi”. The vehicle of the solution for injection included 8% DMSO, 0.67M ammonium bicarbonate, and 2M Hepes. Control animals received an i.p. injection of the vehicle only.

C6 glioblastoma cells = assay: Intracellular cyclic AMP levels (EIA) after isoproterenol activation; type: cell-based
Description: It is well known that after activation of the various GPCRs there is an activation of the adenolate cyclase by G-proteins. This raises the cyclic-AMP levels in the cell, and these levels are then decreased due to the desensitization of the receptors by GRK. Thus it is expected that inhibition of GAST will eliminate this decrease in the cyclic AMP levels, and will cause a constitutive increase in cAMP levels.
C6 glioblastoma cells, which are known to express the β-adrenagic receptor (the substrate of GRK). have been used.
To the cells the following compounds were added:
The amount of the activity was measured by measuring the increase of intracellular cyclic AMP levels, which were measured using the commercially available kit of Biotrack Cellular Communication Assay cyclic-AMP enzyme—immunoassay (EIA) system.

In the case of “KO24H112: GRK-derived peptide; SEQ ID NO.: 15 in b61, printed SEQ ID NO:5 in b230 (LLRRHSI; bARK1)”, the weight change ([1]; normal mice, 23.2 mg/kg and 31.5 mg/kg, vs vehicle (FIG. 8A)) is reported as “effective in reducing both body weight and consumption” and the “change in food consumption” value ([1]; normal mice, 23.2 mg/kg and 31.5 mg/kg, vs vehicle (FIG. 8B)) is reported as “effective in reducing both body weight and consumption”.

In the case of NDP-αMSH [reference compound], the “change in body weight as compared to control” value ([1]; normal Sabra male mice) is reported as “weight decrease” and the “food consumption as compared to control” value ([1]; normal Sabra male mice) is reported as “decrease in food consumption”.

In the case of “K024H107: GRK-derived peptide, SEQ ID NO.: 10 (LLRRHS; bARK1)”, the “animals that became normoglycemic already after the first injection (responders)” value ([2]; i.p. 10 mg/kg once a week) is reported as 4 animals, the “rest of the treated animals (nonresponders): normoglycemia” value ([2]; i.p. 10 mg/kg once a week) is reported as “became nornoglycemic after three additional weekly injections” and the blood-glucose ([2]; i.p. 10 mg/kg, after a single injection, vs vehicle controls (FIG. 3, 4)) is reported as “dramatic decrease in blood-glucose to the normal level”. The “cyclic AMP levels” value (C6 glioblastoma cells; 10 μM compound added first, 1 μM isoproterenol an hour later (FIG. 6)) was “rose significantly”, the “cyclic AMP level” value (C6 glioblastoma cells; order reversed: 1 μM isoproterenol first, 10 μM compound one hour later (FIG. 6)) was “hardly changed” and the “change in body weight as compared to control” value ([1]; normal Sabra male mice) was “weight decrease”. For the same substance, the “food consumption as compared to control” value ([1]; normal Sabra male mice) was “decrease in food consumption” and the “weight and food consumption effect compared among the three treated groups” value ([1]; normal Sabra male mice, compound alone 21 mg/kg vs NDP-αMSH and combination (FIG. 7A, 7B)) was “strongest effect”.
